Laboratory results taken from patent US5068251A, “Lipoxygenase inhibiting compounds” (Abbott Laboratories, priority 1988, dated 1991).

Experiments:
leukotriene biosynthesis = experiment: Inhibition of leukotriene biosynthesis in vivo, rat peritoneal anaphylaxis model; conditions: 40 mg/kg i.p., 30 minutes prior to antigen challenge, peritoneal fluids collected 15 minutes after challenge, versus mean of control group
Procedure: Inhibition of the biosynthesis of leukotrienes in vivo after intraperitoneal administration of compound was determined using a rat peritoneal anaphylaxis model. In this model rats were injected intraperitoneally (ip) with rabbit antibody to bovine serum albumin (BSA) and three hours later injected ip with BSA to induce an antgen-antibody response. Rats were sacrificed 15 minutes after this challenge and the peritoneal fluids were collected and analyzed for leukotriene levels. Test compound was injected intraperitoneal 30 minutes prior to the antigen challenge. Percent inhibition values were determined by comparing the treatment group to the mean of the control group.

5-lipoxygenase = molecular target: T1, 5-lipoxygenase (Rattus norvegicus, UniProt P12527); experiment: Inhibition of 5-lipoxygenase activity in 20,000×g supernatant from homogenized RBL-1 cells; format: biochemical; conditions: linear regression of percentage inhibition versus log inhibitor concentration, read-out: IC50 (In vitro 5-lipoxygenase inhibitory potency)
T1 construct: 20,000×g supernatant from homogenized RBL-1 cells; endogenous in cells; host or cells: RBL-1 cells (20,000×g supernatant of the homogenate)
T1 sequence (P12527 1-673): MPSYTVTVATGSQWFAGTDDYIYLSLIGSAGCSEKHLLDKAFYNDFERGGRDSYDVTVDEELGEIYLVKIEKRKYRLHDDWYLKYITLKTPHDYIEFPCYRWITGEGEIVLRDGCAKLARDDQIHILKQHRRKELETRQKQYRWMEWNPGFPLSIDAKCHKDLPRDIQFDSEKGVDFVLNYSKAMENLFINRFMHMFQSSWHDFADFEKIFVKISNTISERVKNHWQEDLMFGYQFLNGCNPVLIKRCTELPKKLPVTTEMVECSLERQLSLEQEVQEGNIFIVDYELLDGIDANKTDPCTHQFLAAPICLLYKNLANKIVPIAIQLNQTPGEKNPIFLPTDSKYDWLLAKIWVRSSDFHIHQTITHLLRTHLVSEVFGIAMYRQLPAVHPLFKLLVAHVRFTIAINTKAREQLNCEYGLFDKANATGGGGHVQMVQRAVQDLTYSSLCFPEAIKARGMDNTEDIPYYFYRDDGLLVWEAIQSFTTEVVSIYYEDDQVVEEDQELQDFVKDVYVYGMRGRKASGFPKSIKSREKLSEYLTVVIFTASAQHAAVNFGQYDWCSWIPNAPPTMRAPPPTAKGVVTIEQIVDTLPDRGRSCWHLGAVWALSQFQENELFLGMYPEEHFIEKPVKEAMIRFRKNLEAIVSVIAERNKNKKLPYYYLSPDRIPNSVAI
Procedure: Inhibition of 5-lipoxygenase activity was determined using the 20,000×g supernatant from homogenized RBL-1 cells in a similar manner as that described by Dyer and coworkers (Dyer, R. D.; Haviv, F.; Hanel, A. M.; Bornemier, D. A.; Carter, G. W. Fed. Proc , Fed. Am. Soc. Exp. Biol. 1984, 43, 1462A).

IC50 (5-lipoxygenase) [nM] | SMILES | inhibition of leukotriene biosynthesis in vivo (leukotriene biosynthesis) [%]
– | COc1ccc2c(c1)c(CNC(=O)N(C)O)c(C)n2C(=O)c1ccc(Cl)cc1 [Example 1, N'-hydroxy-N'-methyl-N-(4'-chlorobenzoyl-5-methoxy-2-methyl-3-indolyl)methyl urea] | 81
2900 | CC(C)Cc1ccc(C(C)NC(=O)NO)cc1 (stereo not drawn) [Example 3, N'-hydroxy-N-[l-(4-(2'methylpropyl)phenyl)ethyl]urea] | –
1900 | CC(C)Cc1ccc(C(C)CNC(=O)NO)cc1 (stereo not drawn) [Example 4, N'-hydroxy-N-[2-(4-(2'-methylpropyl)phenyl)]urea] | –
